Reference: patent publication US20260363245A1, “HETEROCYCLIC COMPOUND AND HARMFUL ARTHROPOD CONTROL COMPOSITION CONTAINING SAME” (SUMITOMO CHEMICAL COMPANY, LIMITED, priority 2022, published 2026)

Tests used:
Type in all cases: in vivo
[1] = test system: cotton aphids (Aphis gossypii); assay: Test Method 11: cotton aphid, foliar spray on cucumber seedling (Formulation Example 5); details: 200 ppm; foliar spray 10 mL/seedling; 5 days after spraying
Protocol: Each test compound is made to a formulation according to a similar method to that described in the Formulation Example 5, and thereto is added water containing 0.03 v/v % of Shindain (registered trademark) to prepare a diluted solution containing a prescribed concentration of the test compound.
(§1) Cucumber (Cucumis sativus) seedling (on the developmental stage of the second true leaf) is planted in a container and approximately 30 cotton aphids (Aphis gossypii) (all developmental stages of life) are released onto the leaves of the cucumber. After 1 day, the diluted solutions are sprayed to the seedling at a ratio of 10 mL/seedling. Further, after 5 days, the number of the surviving insects is examined and the controlling value is calculated by the following equation.
Controlling value (%)={1−(Cb×Tai)/(Cai×)}×100
wherein the symbols in the formula represent the following descriptions. • Cb: Number of the test insects in untreated group; • Cai: Number of the surviving insects at the time of the investigation in untreated group; • Tb: Number of the test insects in treated group; • Tai: Number of the surviving insects at the time of the investigation in treated group; • Here the “untreated group” represents a group where the similar treatment procedure to that of the treated group except not using the test compound is done.

[2] = test system: cotton aphids (Aphis gossypii); assay: Test Method 1: cotton aphid, foliar spray on cucumber seedling (Formulation Example 1); details: 500 ppm; foliar spray 10 mL/seedling; 5 days after spraying
Protocol: (§2) Each test compound is made to a formulation according to a similar method to that described in the Formulation Example 1, and thereto is added water containing 0.03 v/v % of Shindain (registered trademark) to prepare a diluted solution containing a prescribed concentration of the test compound.
as §1
Controlling value(%)={1−(Cb×Tai)/(Cai×Tb)}×100
wherein the symbols in the formula represent the following descriptions. • Cb: Number of the test insects in untreated group; • Cai: Number of the surviving insects at the time of the investigation in untreated group; • Tb: Number of the test insects in treated group; • Tai: Number of the surviving insects at the time of the investigation in treated group;
Here the “untreated group” represents a group where the similar treatment procedure to that of the treated group except not using the test compound is done.

[3] = test system: Western corn rootworm (Diabrotica virgifera virgifera); assay: Test Method 5: Western corn rootworm, immersed corn seedling; details: 200 ppm; corn seedling immersed 30 seconds; second-instar larvae; 5 days
Protocol: Each 1 mg of the test compounds is dissolved in 50 μL of a mixed solution consisting of 5% of polyoxyethylene sorbitan mono-cocoate and 95% of acetone by volume ratio. Thereto is added water containing 0.03% by volume of Shindain (registered trademark) to prepare a diluted solution containing a prescribed concentration of the test compound.
A young seedling of corn (Zea mays) is immersed into the diluted solution for 30 seconds. Thereafter, two seedlings are installed in a plastic petri dish ([…]), and 10 of second-instar larvae of Western corn rootworm (Diabrotica virgifera virgifera) are released into the dish. After 5 days, the number of the dead insects is counted, and the mortality of insects is calculated by the following equation.
Mortality(%)=(Number of dead insects/10)×100

[4] = test system: common house mosquito (Culex pipiens pallens); assay: Test Method 12: common house mosquito larvae in diluted solution; details: 3.5 ppm; last instar larvae; 1 day
Protocol: Each test compound is formulated to a test formulation according to a similar method to that described in the Formulation Example 1, and water is added in preparing for a diluted solution containing a prescribed concentration of the test compound.
Into the diluted solution, 30 last instar larvae of common house mosquito (Culex pipiens pallens) are released, and after 1 day, the state of the house mosquito larvae is examined, and the mortality is calculated by the following equation.
(§3) Mortality(%)=(Number of dead insects/Number of tested insects)×100

[5] = test system: cotton worm (Spodoptera litura); assay: Test Method 3: cotton worm, sprayed cabbage seedling, second-instar larvae; details: 500 ppm, spray 20 mL/seedling, 5 days
Protocol: as §2
(§4) Cabbage (Brassicae oleracea) seedling (on the developmental stage of the second to third true leaf) is planted in a container, and the diluted solutions are sprayed to the seedling at a ratio of 20 mL/seedling. Thereafter, the aerial part of the seedling is cut out and then is installed into a container in which a filter paper is placed at the bottom of the container. Five of second-instar larvae of cotton worm (Spodoptera litura) are released into the container. After 5 days, the number of the surviving insects is counted, and the mortality of insects is calculated by the following equation.
(§5) Mortality(%)=(1−Number of surviving insects/5)×100

[6] = test system: diamondback moth (Plutella xylostella); assay: Test Method 4: diamondback moth, sprayed cabbage seedling, second-instar larvae; details: 500 ppm, spray 20 mL/seedling, 5 days
Protocol: as §2
as §4, with “diamondback moth (Plutella xylostella)” for “cotton worm (Spodoptera litura)”
as §5

[7] = test system: housefly (Musca domestica); assay: Test Method 8: housefly female adults, coated glass vial; details: 40 mg/m^2 coated vial, 1 day
Protocol: An acetone solution which is adjusted to 800 ppm of each test compound is poured into a 20 mL glass vial, and the test compound is coated uniformly on inner face of the vial so as to 40 mg/m^2 of the test compound treated, and the vial is then dried.
5 housefly (Musca domestica) female adults are released into the treated vial, and the vial is then covered with lid. After the prescribed time, the state of the housefly is examined, and the mortality is calculated by the following equation.
as §3

| SMILES | controlling value [1] [%] | controlling value [2] [%] | mortality [3] [%] | mortality [4] | mortality [5] [%] | mortality [6] [%] | mortality [7] [%] |
| --- | --- | --- | --- | --- | --- | --- | --- |
| CCS(=O)(=O)c1cc(-c2ccc(Cl)cc2)cnc1N1CCn2nc(OC(F)F)cc2C1=O [compound 16] | ≥ 90 | – | – | – | – | – | – |
| CCS(=O)(=O)c1cc(Br)cnc1N1CCn2nc(C(F)(F)F)cc2C1=O [compound 7] | ≥ 90 | ≥ 90 | ≥ 80 | greater than 90% | – | – | – |
| CCS(=O)(=O)c1cc(-c2ccc(F)cc2)cnc1N1CCn2nc(C(F)(F)F)cc2C1=O [compound 9] | ≥ 90 | ≥ 90 | ≥ 80 | – | ≥ 80 | ≥ 80 | – |
| CCS(=O)(=O)c1cc(-c2cccc(C#N)n2)cnc1N1CCn2nc(C(F)(F)F)cc2C1=O [compound 23] | – | ≥ 90 | – | greater than 90% | – | – | – |
| CCS(=O)(=O)c1cc(C2CC2)cnc1N1CCn2nc(OC(F)F)cc2C1=O [compound 6] | ≥ 90 | ≥ 90 | ≥ 80 | greater than 90% | ≥ 80 | ≥ 80 | – |
| CCS(=O)(=O)c1cc(-c2cc(Cl)cc(Cl)c2)cnc1N1CCn2nc(C(F)(F)F)cc2C1=O [compound 13] | – | ≥ 90 | – | greater than 90% | ≥ 80 | ≥ 80 | – |
| CCS(=O)(=O)c1c(N2CCn3nc(Br)cc3C2=O)nc2ccc(I)cn12 [compound 46] | ≥ 90 | – | – | – | – | – | – |
| CCS(=O)(=O)c1cc(-c2ccc(Cl)cc2)cnc1N1CCn2nc(C(F)(F)F)cc2C1=O [compound 11] | ≥ 90 | ≥ 90 | ≥ 80 | – | ≥ 80 | ≥ 80 | ≥ 80 |
| CCS(=O)(=O)c1cc(-c2ccc(F)cc2)cnc1N1CCn2nc(OC(F)F)cc2C1=O [compound 19] | ≥ 90 | ≥ 90 | – | greater than 90% | ≥ 80 | – | – |
| CCS(=O)(=O)c1cc(Br)cnc1N1CCn2nc(OC(F)F)cc2C1=O [compound 8] | ≥ 90 | ≥ 90 | – | – | – | ≥ 80 | – |
| CCS(=O)(=O)c1cc(-c2cc(Cl)ccn2)cnc1N1CCn2nc(C(F)(F)F)cc2C1=O [compound 27] | – | – | – | greater than 90% | – | ≥ 80 | – |
| CCS(=O)(=O)c1c(N2CCn3nc(OC(F)F)cc3C2=O)nc2ccc(I)cn12 [compound 3] | ≥ 90 | – | ≥ 80 | greater than 90% | ≥ 80 | ≥ 80 | ≥ 80 |
